In US20260297042A1, “BIARYLAMIDE DERIVATIVES AND THEIR USE AS PKMYT1 INHIBITORS” (CANCER RESEARCH TECHNOLOGY LIMITED, priority 2023, published 2026):

Assays:
Human PKMYT1 = target: T1, Human PKMYT1 (Homo sapiens, UniProt Q99640); test: PKMYT1 biochemical ADP-Glo enzymatic assay; details: ADP-Glo
T1 construct: Human PKMYT1 75-362 was cloned as a TEV cleavable 6xHis fusion; 6xHis (TEV cleavable) (cleaved yes); made in house; host or cells: bacterial cells
T1 sequence (Q99640 75-362): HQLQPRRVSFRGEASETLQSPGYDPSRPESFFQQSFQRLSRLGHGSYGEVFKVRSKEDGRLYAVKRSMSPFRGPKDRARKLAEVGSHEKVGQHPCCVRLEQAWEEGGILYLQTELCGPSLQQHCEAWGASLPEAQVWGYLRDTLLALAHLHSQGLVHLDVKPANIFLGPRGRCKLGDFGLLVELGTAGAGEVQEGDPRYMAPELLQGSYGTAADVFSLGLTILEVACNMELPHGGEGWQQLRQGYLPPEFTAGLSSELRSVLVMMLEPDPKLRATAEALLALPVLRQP
Outline: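 IC50 values come from 10-point 3-fold series, with replicates required within 3-fold and r2 >0.9. ADP formed by PKMYT1 intrinsic ATPase (500 uM ATP, 60 min, 26° C.) was quantified by ADP-Glo luminescence. The enzyme was the TEV-cleaved kinase domain 75-362 at 15 nM, in HEPES pH 7.5 buffer.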

WEE1 = target: T2, WEE1 (Homo sapiens, UniProt P30291); test: Selectivity versus WEE1 assay (ADP-Glo enzymatic assay); assay type: biochemical; details: for IC50: ADP-Glo; for PKMYT1 vs. WEE1 selectivity: fold difference in selectivity for PKMYT1 over WEE1
T2 construct: purchased Thermo Fisher PR7373A
Outline: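 ADP-Glo luminescent read-out after a 60-min, 26 °C kinase reaction of 15 nM WEE1 with 30 µM ATP, in HEPES pH 7.5 buffer containing MgCl2, EGTA, Brij-35 and 1% DMSO. IC50 accepted only when replicate values agree within 3-fold and curve fit r2 exceeds 0.9.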

OVCAR 3 cells = test: Cancer cell line proliferation assay, ATP-based cell viability (Cell Titre Glow), OVCAR 3 (CCNE1-amplified); details: KYSE30 (normal CCNE1) GI50 vs. OVCAR 3 (CCNE1-amplified) GI50
Outline: (§1)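 Cells were treated with PKMYT1 inhibitors, then proliferation was assessed with CellTiter-Glo and luminescence read. GI50 values were fitted from the resulting data.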

KYSE-30 cells = test: Cancer cell line proliferation assay, ATP-based cell viability (Cell Titre Glow), KYSE-30 (normal CCNE1); details: Homo sapiens, KYSE-30 cells (normal CCNE1), concentration that achieves 50% cell growth proliferation inhibition, read-out: KYSE30 Gl50
Outline: as §1

[1] = target: T3, Cellular PKMYT1 Biomarker CDK1 pT14 (Homo sapiens, UniProt Q99640); test: Inhibition of cellular PKMYT1 biomarker CDK1 pT14 in OVCAR 3 cells (immunoblot); assay type: cell-based; details: 20 hours incubation
T3 construct: read-out CDK1 phospho-T14 immunoblot
T3 sequence (Q99640 1-499): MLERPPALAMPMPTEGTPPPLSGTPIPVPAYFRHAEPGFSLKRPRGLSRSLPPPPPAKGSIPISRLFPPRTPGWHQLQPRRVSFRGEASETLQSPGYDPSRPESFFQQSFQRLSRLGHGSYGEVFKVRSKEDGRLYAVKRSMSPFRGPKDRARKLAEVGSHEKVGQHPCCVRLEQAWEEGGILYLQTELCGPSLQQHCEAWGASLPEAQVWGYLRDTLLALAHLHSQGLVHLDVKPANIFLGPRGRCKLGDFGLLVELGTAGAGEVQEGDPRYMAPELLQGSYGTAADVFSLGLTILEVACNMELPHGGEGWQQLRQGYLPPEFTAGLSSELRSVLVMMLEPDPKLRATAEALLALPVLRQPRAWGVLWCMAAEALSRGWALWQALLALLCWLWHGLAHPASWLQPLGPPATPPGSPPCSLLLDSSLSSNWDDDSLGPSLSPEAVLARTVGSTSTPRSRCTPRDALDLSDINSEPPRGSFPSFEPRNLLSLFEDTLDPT
Outline: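 Confluent OVCAR 3 cells treated with a compound concentration range for 20 h at 37 °C. Lysates analysed by automated capillary immunoblot for CDK1 phospho-T14, with vinculin, fluorescence detection; IC50 by regression.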

[2] = PKMYT1 kinase domain 15 nM, banded values
[3] = 15 nM PKMYT1 kinase domain, 500 µM ATP, 60 minutes at 26° C., banded
[4] = 15 nM WEE1, 60 minutes at 26° C., banded
[5] = banded, ">N" = at least in this band but could be higher

T2 sequence (P30291 whole entry): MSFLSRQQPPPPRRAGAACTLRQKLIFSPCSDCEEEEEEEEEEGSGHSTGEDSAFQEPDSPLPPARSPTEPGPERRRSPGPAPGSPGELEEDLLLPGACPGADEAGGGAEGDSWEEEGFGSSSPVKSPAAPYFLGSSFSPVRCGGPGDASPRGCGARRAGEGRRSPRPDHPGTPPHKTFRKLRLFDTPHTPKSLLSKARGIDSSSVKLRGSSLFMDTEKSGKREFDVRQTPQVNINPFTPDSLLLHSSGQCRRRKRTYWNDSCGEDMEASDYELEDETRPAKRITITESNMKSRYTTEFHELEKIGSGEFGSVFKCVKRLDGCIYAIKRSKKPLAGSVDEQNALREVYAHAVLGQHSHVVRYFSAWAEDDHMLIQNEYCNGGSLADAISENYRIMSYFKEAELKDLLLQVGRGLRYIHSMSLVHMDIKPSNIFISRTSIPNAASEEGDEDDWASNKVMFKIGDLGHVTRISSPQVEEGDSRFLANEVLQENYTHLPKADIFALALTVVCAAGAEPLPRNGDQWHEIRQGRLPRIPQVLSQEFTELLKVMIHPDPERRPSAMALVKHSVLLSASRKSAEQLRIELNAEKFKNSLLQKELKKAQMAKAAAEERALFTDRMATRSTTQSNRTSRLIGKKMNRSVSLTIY

Row | Structure (SMILES) | IC50 (Human PKMYT1; [2]) [nM] | IC50 (WEE1; WEE1 15 nM, banded values) [µM] | PKMYT1 vs. WEE1 selectivity (WEE1; banded) | Selectivity ratio KYSE30 Gl50 vs. OVCAR3 Gl50 (OVCAR 3 cells) | GI50 (KYSE-30 cells) [µM] | IC50 [1] [nM] | IC50 (Human PKMYT1; [3]) [nM] | IC50 (WEE1; [4]) [µM] | PKMYT1 vs. WEE1 selectivity (WEE1; [5])
1 | Cc1ccc(O)c(C)c1NC(=O)c1cnc(Nc2cccc(N(C)CCC#N)n2)s1 [BAA-401, 2-((6-((2-cyanoethyl)(methyl)amino)pyridin-2-yl)amino)-N-(3-hydroxy-2,6-dimethylphenyl)thiazole-5-carboxamide] | < 50 | 1 to 11 | W (10-<100 fold) | Y (>20 fold) | 0.5 to 5 | < 100 |  |  | 
2 | Cc1cn(S(=O)(=O)c2ccccc2)nc1Nc1ncc(C(=O)Nc2c(C)ccc(O)c2C)s1 [BAA-379, N-(3-Hydroxy-2,6-dimethylphenyl)-2-((4-methyl-1-(phenylsulfonyl)-1H-pyrazol-3-yl)amino)thiazole-5-carboxamide] |  |  |  | X (3-20 fold) | > 5 | < 100 | < 50 | > 11 | X (100-<1000 fold)
3 | CCn1nc(Nc2ncc(C(=O)Nc3c(C)ccc(O)c3C)s2)c2ccccc21 [BAA-458, 2-((1-ethyl-1H-indazol-3-yl)amino)-N-(3-hydroxy-2,6-dimethylphenyl)thiazole-5-carboxamide] | < 50 | 1 to 11 | X (100-<1000 fold) | Y (>20 fold) | 0.5 to 5 | < 100 |  |  | 
4 | Cc1cn(CC(F)(F)F)nc1Nc1ncc(C(=O)Nc2c(C)ccc(O)c2C)s1 [BAA-271, N-(3-hydroxy-2,6-dimethylphenyl)-2-((4-methyl-1-(2,2,2-trifluoroethyl)-1H-pyrazol-3-yl)amino) thiazole-5-carboxamide] |  |  |  | Y (>20 fold) | > 5 | < 100 | < 50 | > 11 | X (100-<1000 fold)
5 | Cc1cn(-c2ccccn2)nc1Nc1ncc(C(=O)Nc2c(C)ccc(O)c2C)s1 [BAA-365, N-(3-hydroxy-2,6-dimethylphenyl)-2-((4-methyl-1-(pyridin-2-yl)-1H-pyrazol-3-yl)amino)thiazole-5-carboxamide] |  |  |  | Y (>20 fold) | 0.5 to 5 | < 100 | < 50 | > 11 | X (100-<1000 fold)
6 | CCOc1ccc(Nc2ncc(C(=O)Nc3c(C)ccc(O)c3C)s2)nc1C [BAA-430, 2-((5-ethoxy-6-methylpyridin-2-yl)amino)-N-(3-hydroxy-2,6-dimethylphenyl)thiazole-5-carboxamide] | < 50 | > 11 | Y (1000-5000 fold) | Y (>20 fold) | > 5 | < 100 |  |  | 
7 | Cc1ccc(O)c(C)c1NC(=O)c1cnc(Nc2nn(CCF)cc2Cl)s1 [BAA-582, 2-((4-chloro-1-(2-fluoroethyl)-1H-pyrazol-3-yl)amino)-N-(3-hydroxy-2,6-dimethylphenyl)thiazole-5-carboxamide] | < 50 | 1 to 11 | X (100-<1000 fold) | Y (>20 fold) | 0.5 to 5 | < 100 |  |  | 
8 | Cc1ccc(NC(=O)c2ccc(F)cc2)nc1Nc1ncc(C(=O)Nc2c(C)ccc(O)c2C)s1 [BAA-309, 2-((6-(4-fluorobenzamido)-3-methylpyridin-2-yl)amino)-N-(3-hydroxy-2,6-dimethylphenyl)thiazole-5-carboxamide] |  |  |  | Y (>20 fold) | 0.5 to 5 | < 100 | 50 to 1000 | > 11 | Y (1000-5000 fold)
9 | Cc1cn(-c2cnn(C(C)C)c2)nc1Nc1ncc(C(=O)Nc2c(C)ccc(O)c2C)s1 [BAA-391, N-(3-hydroxy-2,6-dimethylphenyl)-2-((1′-isopropyl-4-methyl-1′H-[1,4′-bipyrazol]-3-yl)amino)thiazole-5-carboxamide] |  |  |  | Y (>20 fold) | 0.5 to 5 | < 100 | < 50 | 1 to 11 | X (100-<1000 fold)
10 | Cc1ccc(O)c(C)c1NC(=O)c1cnc(Nc2cccc(N3CCN(CCO)CC3)n2)s1 [BAA-432, N-(3-hydroxy-2,6-dimethylphenyl)-2-((6-(4-(2-hydroxyethyl)piperazin-1-yl)pyridin-2-yl)amino)thiazole-5-carboxamide] | < 50 | 1 to 11 | X (100-<1000 fold) | Y (>20 fold) | > 5 | < 100 |  |  | 
11 | Cc1cn(CC#N)nc1Nc1ncc(C(=O)Nc2c(C)ccc(O)c2Br)s1 [BAA-584, N-(2-Bromo-3-hydroxy-6-methylphenyl)-2-((1-(cyanomethyl)-4-methyl-1H-pyrazol-3-yl)amino)thiazole-5-carboxamide] | < 50 | 0.05 to 1 | W (10-<100 fold) | Y (>20 fold) | > 5 | 100 to 1000 |  |  | 
12 | Cc1ccc(O)c(C)c1NC(=O)c1cnc(Nc2n[nH]cc2Cl)s1 [BAA-566, 2-((4-chloro-1H-pyrazol-3-yl)amino)-N-(3-hydroxy-2,6-dimethylphenyl)thiazole-5-carboxamide] | < 50 | 1 to 11 | X (100-<1000 fold) | Y (>20 fold) | > 5 | < 100 |  |  | 
13 | CCN(C(=O)Cc1cccc(Nc2ncc(C(=O)Nc3c(C)ccc(O)c3C)s2)n1)C1CC1 [BAA-426, 2-((6-(2-(Cyclopropyl(ethyl)amino)-2-oxoethyl)pyridin-2-yl)amino)-N-(3-hydroxy-2,6-dimethylphenyl)thiazole-5-carboxamide] | < 50 | > 11 | Z (>5000 fold) | Y (>20 fold) | 0.5 to 5 | < 100 |  |  | 
